Consider 2 compounds from patent publication US5849695A, “Parathyroid hormone analogues useful for treatment of osteoporosis and disorders of calcium meatabolism in mammals” (The Regents of the University of California, priority 1993, dated 1998).

Data set [1] deals with T1, PTH receptor (Rattus norvegicus, UniProt P25961).
T1 construct: endogenous in cells; host or cells: UMR 106-H5 rat osteosarcoma cells
T1 sequence (P25961 27-591): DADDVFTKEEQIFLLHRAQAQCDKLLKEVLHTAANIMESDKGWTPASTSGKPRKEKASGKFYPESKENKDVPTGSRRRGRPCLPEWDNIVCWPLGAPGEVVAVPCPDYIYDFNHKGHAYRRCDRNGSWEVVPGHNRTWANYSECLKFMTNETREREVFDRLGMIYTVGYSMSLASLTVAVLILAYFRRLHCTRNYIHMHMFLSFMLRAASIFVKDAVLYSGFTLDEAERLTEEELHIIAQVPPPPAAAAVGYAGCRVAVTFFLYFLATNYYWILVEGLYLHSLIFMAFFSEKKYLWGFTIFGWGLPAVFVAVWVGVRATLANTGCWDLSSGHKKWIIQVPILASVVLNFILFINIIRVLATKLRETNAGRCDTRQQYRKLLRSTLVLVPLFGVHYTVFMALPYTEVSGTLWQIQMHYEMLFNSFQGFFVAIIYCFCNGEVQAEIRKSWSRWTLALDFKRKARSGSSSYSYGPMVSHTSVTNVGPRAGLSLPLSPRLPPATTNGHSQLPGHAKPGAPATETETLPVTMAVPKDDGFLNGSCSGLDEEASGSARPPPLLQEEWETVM
Type of data set: cell-based. How it is done:
(§1) Assays were conducted using UMR-160-H5 cells. These assays were performed as described in Cohen et al. (1991), J. Biological Chem., 266(3), 1997 and in the Experimental section, e.g. Example 11. Receptor binding assays were carried out in canine renal plasma membranes and in UMR 106-H5 rat osteosarcoma cells as previously described in detail (Ref. 14,32), using ^125 I-labeled PTH(1-34)amide as the radioligand. Binding potency (IC50) was quantified as the concentration of unlabeled peptide required for half-maximal displacement of the radioligand. […] Adenylate cyclase activity was assessed in canine renal membranes by the conversion of [α-32p ] ATP to [^32 P] cyclic AMP, essentially as described, except for the addition of 100 micromolar GTP (Ref. 33,34). Adenylate cyclase activity in UMR 106-H5 cells was assessed essentially as described (Ref. 35). In brief, cells were incubated with [3H]adenine 1 micro Ci/ml of serum-free MEM for two hours at 37° C. to label the endogenous ATP pool. Cells were then exposed to 0.4 mM IBMX for 10 min, followed by the appropriate peptide for an additional 10 min at ambient temperature. The cells are then scraped in 20% TCA, and [3H]cyclic AMP is isolated by the column procedure of Salomon et al. (Ref. 36). Potency in the adenylate cyclase assays (Ka) is the concentration of peptide producing half-maximal enzyme activation.

Data set [2] concerns the target T2, PTH receptor (Canis lupus familiaris, UniProt Q9TU31).
T2 construct: canine renal plasma membranes; from tissue; host or cells: canine kidney (renal plasma membranes)
T2 sequence (Q9TU31 29-595): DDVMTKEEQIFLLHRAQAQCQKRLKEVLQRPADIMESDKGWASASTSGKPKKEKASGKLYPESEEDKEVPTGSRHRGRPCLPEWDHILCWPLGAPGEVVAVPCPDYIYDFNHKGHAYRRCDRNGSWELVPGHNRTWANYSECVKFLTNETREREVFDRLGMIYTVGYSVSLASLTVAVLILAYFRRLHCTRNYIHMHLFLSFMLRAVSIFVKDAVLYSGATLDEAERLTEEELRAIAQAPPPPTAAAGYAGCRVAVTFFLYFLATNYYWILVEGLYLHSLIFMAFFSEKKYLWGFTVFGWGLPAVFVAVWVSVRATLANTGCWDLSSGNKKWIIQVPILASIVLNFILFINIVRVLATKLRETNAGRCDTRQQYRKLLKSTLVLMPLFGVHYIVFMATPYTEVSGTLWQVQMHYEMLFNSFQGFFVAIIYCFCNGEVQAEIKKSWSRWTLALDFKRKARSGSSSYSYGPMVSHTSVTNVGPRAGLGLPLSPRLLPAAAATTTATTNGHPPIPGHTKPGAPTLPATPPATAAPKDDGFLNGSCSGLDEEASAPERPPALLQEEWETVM
In kind it is binding, canine. On the procedure:
as §1, with “Receptor” for “Assays were conducted using UMR-160-H5 cells. These assays were performed as described in Cohen et al. (1991), J. Biological Chem., 266(3), 1997 and in the Experimental section, e.g. Example 11. Receptor”

The target of data set [3] is T3, PTH receptor (Homo sapiens, UniProt Q03431).
T3 sequence (Q03431 27-593): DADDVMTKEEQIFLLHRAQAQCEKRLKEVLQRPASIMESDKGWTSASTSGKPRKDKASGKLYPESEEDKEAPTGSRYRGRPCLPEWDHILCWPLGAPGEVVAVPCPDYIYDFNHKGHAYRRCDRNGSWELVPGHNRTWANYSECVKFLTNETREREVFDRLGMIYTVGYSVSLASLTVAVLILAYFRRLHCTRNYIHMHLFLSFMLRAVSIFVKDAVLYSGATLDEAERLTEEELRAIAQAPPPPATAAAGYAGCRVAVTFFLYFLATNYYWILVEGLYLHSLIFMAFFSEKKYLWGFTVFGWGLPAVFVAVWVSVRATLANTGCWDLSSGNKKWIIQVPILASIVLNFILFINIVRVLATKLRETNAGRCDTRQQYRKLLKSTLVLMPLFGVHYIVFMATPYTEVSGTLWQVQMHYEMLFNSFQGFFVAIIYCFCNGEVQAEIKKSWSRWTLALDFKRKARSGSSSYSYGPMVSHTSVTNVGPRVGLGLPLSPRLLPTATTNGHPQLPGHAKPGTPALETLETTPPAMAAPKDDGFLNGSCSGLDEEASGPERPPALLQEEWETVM
Type of data set: cell-based. On the set-up: In intact rat (UMR-106) and human (SaOS-2) bone cell lines; endogenous in cells; host or cells: SaOS-2 human bone (osteosarcoma) cells. An excerpt: The renal membrane assay values listed reflect the effect of the polypeptide analogue with kidney tissue receptors. The UMR-106-H5 assay values reflect the effect of the peptide analogue with rat bone tissue receptors. The Sa05-2 assay values reflect the effect of the peptides for human bone tissue receptors.

The target of data set [4] is T3, PTH receptor.
Data set [5] has as its target T1, PTH receptor. In kind it is binding. On the procedure: as §1, with “Receptor” for “Assays were conducted using UMR-160-H5 cells. These assays were performed as described in Cohen et al. (1991), J. Biological Chem., 266(3), 1997 and in the Experimental section, e.g. Example 11. Receptor”
Data set [6] deals with T2, PTH receptor. In kind it is biochemical, canine. How it is done:
as §1, with “Receptor” for “Assays were conducted using UMR-160-H5 cells. These assays were performed as described in Cohen et al. (1991), J. Biological Chem., 266(3), 1997 and in the Experimental section, e.g. Example 11. Receptor”

Data set [7] has as its target T3, PTH receptor. This is another data set of the same source.
Data set [8] concerns PTH receptor.
For data set [9] the following is noted: aqueous conditions in the absence of amphiphiles (Ref. 37-39); cited from earlier work.
Setting [10] is: Table 5A, intact cells, hPTH(1-34) = 100.

For `CC[C@H](C)[C@H](NC(=O)[C@H](CCC(=O)O)NC(=O)[C@H](CC(C)C)NC(=O)[C@@H](NC(=O)[C@@H](N)CO)C(C)C)C(=O)N[C@@H](CCC(N)=O)C(=O)N[C@@H](CC(C)C)C(=O)N[C@@H](CCSC)C(=O)N[C@@H](Cc1c[nH]cn1)C(=O)N[C@@H](CC(N)=O)C(=O)N[C@@H](CC(C)C)C(=O)NCC(=O)N[C@@H](CCCCN)C(=O)N[C@@H](Cc1c[nH]cn1)C(=O)N[C@@H](CC(C)C)C(=O)N[C@@H](CC(N)=O)C(=O)N[C@@H](CO)C(=O)N[C@@H](CCSC)C(=O)N[C@@H](CCC(=O)O)C(=O)N[C@@H](CCCNC(=N)N)C(=O)N[C@H](C(=O)N[C@@H](CCC(=O)O)C(=O)N[C@@H](Cc1c[nH]c2ccccc12)C(=O)N[C@@H](CC(C)C)C(=O)N[C@@H](CCCNC(=N)N)C(=O)N[C@@H](CCCCN)C(=O)N[C@@H](CCCCN)C(=O)N[C@@H](CC(C)C)C(=O)N[C@@H](CCC(N)=O)C(=O)N[C@@H](CC(=O)O)C(=O)N[C@H](C(=O)N[C@@H](Cc1c[nH]cn1)C(=O)N[C@@H](CC(N)=O)C(=O)N[C@@H](Cc1ccccc1)C(=O)O)C(C)C)C(C)C` [[leu^3]hPTH(1-34), [leu^3] HPTH(1-34)], the “BONE CELLS Rat(UMR-106) Potency (AC)” value on PTH receptor [1] came to 13%. Moreover, the “BONE CELLS Rat(UMR-106) Activity (AC)” value at PTH receptor [1] (setting [10]) is 100%. Besides, the “RENAL MEMBRANES Canine Potency (B)” value at PTH receptor [2] was determined as 7%. On PTH receptor [3], the “BONE CELLS Human(SaOS-2) Potency (AC)” value is reported as 11%. Moreover, the “BONE CELLS Human(SaOS-2) Activity (AC)” value on PTH receptor [3] (setting [10]) was found to be 86%. Besides, the “RENAL MEMBRANES Human Potency (AC)” value on PTH receptor [4] was 3%. Moreover, the “RENAL MEMBRANES Human Activity (AC)” value at PTH receptor [4] (Table 5B, hPTH(1-34) = 100) stood at 35%. Moreover, in the data set on PTH receptors, the “KIDNEY CELLS (CK) Potency (B)” value was determined as 22% and the “potency of native [ser^3]HPTH(1-34) retained in binding to PTH receptors” value is reported as 5-15%. For the same compound, on PTH receptor [5], the “BONE CELLS Rat(UMR-106) Potency (B)” value was 6%. Besides, the “RENAL MEMBRANES Canine Potency (AC)” value on PTH receptor [6] was 1%. At PTH receptor [6] (Table 5B, hPTH(1-34) = 100), the “RENAL MEMBRANES Canine Activity (AC)” value worked out at 47%. At PTH receptor [7], the “BONE CELL MEMBRANES Human SaOS-2 Potency (AC)” value was 8%. The “BONE CELL MEMBRANES Human SaOS-2 Activity (AC)” value at PTH receptor [7] (Table 5B, hPTH(1-34) = 100) was 14%. Moreover, the “KIDNEY CELLS (CK) Potency (AC)” value in the data set with PTH receptor [8] was 16%.

As to “bPTH(7-34) (FMHNLGKHLSSMERVEWLRKKLQDVHNF; Parathyroid hormone; UniProt P01268 38-65, looked up, fragment)”, the “alpha-helical residues, previous estimates” value in data set [9] was 9 residues.
